Experiments:
Assay type in all cases: in vivo, male Albino Sprague Dawley rats
[1] = Blood hemoglobin levels in indomethacin-induced enteropathy in rats (Example 16)
Protocol: Twenty four hours after the last dose, the rats were euthanized and samples of blood were collected for the assessment of hemoglobin levels.
Hemoglobin analysis was performed on rat blood samples collected as reported above, by means of Quantichrom Hemoglobin assay kit (Bioassay Systems, Hayward, Calif., USA) and expressed as g/dL.

[2] = Mortality in indomethacin-induced enteropathy in rats (Example 16); details: indomethacin […] BID + rifaximin product 50 mg/kg BID, 14 days
Protocol: A percentage of 100% of survivors was also recorded in vehicle control group (Group 1).

[3] = test system: indomethacin - induced microscopic intestinal damage; assay: Histological analysis of intestinal damage in jejunum and ileum (Example 16); details: rats
Protocol: (§1) The whole intestinal tract was removed and processed for the evaluation of tissue myeloperoxidase (MPO) levels and histological analysis of intestinal damage in jejunum and ileum.
Pharmacol. Ther. 1993; 7:29-39. Upon removal, the whole intestinal tract was immediately injected with 10% formalin and left in the same fixative solution. After 30 min, it was opened along the anti-mesenteric border, cleaned of fecal content and fixed in 10% formalin for 24 h. Tissue samples were taken as described below and the full length of small intestine was measured.
In particular the following tissue samples were taken • Ileum: 1 cm of tissue proximal to the ileo-cecal valve was discarded and two specimens of 1.5-2 cm of ileum were taken at this edge as well as 5 cm away from the first ileum sample • Proximal jejunum: two specimens of 1.5-2 cm were taken 5 cm away from both the proximal and distal end of the 37.5% of the small intestine total length. • Distal jejunum: two specimens of 1.5-2 cm were taken 5 cm away from both the proximal and distal end of 81% of small intestine's total length.
After fixation, tissues were embedded into paraffin blocks and were cut into consecutive serial 3-μm sections for staining with hematoxylin and eosin. Histological damage was assessed by two observers, blind to the treatment. Each section was given a score of lesion (Type 1 to 3) (TABLE 23).
Quantitative assessment of histological damage was expressed as percentage of the total length of lesions over the total length of the histological section.

myeloperoxidase (MPO) = assay: Tissue myeloperoxidase (MPO) levels in jejunum and ileum, ELISA (Example 16)
Protocol: as §1
Specimens of intestinal tissues (30 mg) were homogenized on ice with a polytron homogenizer (QIAGEN, Milan, Italy) in 0.6 mL of ice-cold lysis buffer (200 mM NaCl, 5 mM EDTA, 10 mM Tris, 10% glycerine, 1 mM PMSF, 1 μg/ml leupeptin and 28 μg/ml aprotinin (pH 7.4). The homogenate was centrifuged 2 times at 4° C. for 15 min at 1.500 g. The supernatant was diluted 1:5 and used for determination of MPO concentration by means of enzyme-linked immunosorbent assay (ELISA) (Hycult Biotech, Uden, Netherlands). All samples were assayed within 2 day after collection. The results were expressed as nanograms of MPO per milligram of intestinal tissue.

[4] = indomethacin […] BID 14 days, alone or with gastroresistant rifaximin 25 and 50 mg/kg BID or rifaximin polymorph alpha 50 mg/kg BID
[5] = rats, indomethacin […] BID 14 days, alone or with gastroresistant rifaximin 25 or 50 mg/kg BID or rifaximin polymorph alpha 50 mg/kg BID

Row | SMILES | Reduction in hemoglobin values ([1]; end of the treatment period (14 days), in respect to the control) [%] | Mortality (%) [2] | Jejunum type 2 lesions, microscopic assessment (in words) [3, 4] | Reduction of MPO levels in respect to animals which did not receive rifaximin (myeloperoxidase (MPO); rats treated with indomethacin, 14 days) | Ileum tissue MPO levels (in words) (myeloperoxidase (MPO); [5]) | Jejunum tissue MPO levels (in words) (myeloperoxidase (MPO); [5]) | Blood hemoglobin concentration (in words) ([1]; indomethacin […] BID 14 days, alone or with gastroresistant rifaximin at both doses or rifaximin polymorph alpha 50 mg/kg BID) | Ileum type 1 lesions, microscopic assessment (in words) [3, 4] | Ileum type 2 lesions, microscopic assessment (in words) [3, 4] | Jejunum type 1 lesions, microscopic assessment (in words) [3, 4] | Lesions / histological damage in ileum and jejunum, overall (in words) ([3]; with indomethacin […] BID 14 days, gastroresistant rifaximin 25 and 50 mg/kg BID, rifaximin polymorph alpha 50 mg/kg BID)
1 | CO[C@H]1/C=C/O[C@@]2(C)Oc3c(C)c(O)c4c(O)c(c5c(nc6cc(C)ccn65)c4c3C2=O)NC(=O)/C(C)=C\C=C\[C@H](C)[C@H](O)[C@@H](C)[C@@H](O)[C@@H](C)[C@H](OC(C)=O)[C@@H]1C [rifaximin, (2S, 16Z, 18E, 20S, 21S, 22R, 23R, 24R, 25S, 26S, 27S, 28E)-5,6, 21, 23, 25 pentahydroxy-27-methoxy-2,4, 11, 16, 20, 22, 24, 26-octamethyl-2,7-(epoxypentadeca-(1,11,13)trienimino) benzofuro (4,5-e) pyrido (1,2,-a benzimidazole-1,15(2H)dione, 25-acetate)] | 12 | do not displayed death | significantly reduced Type 2 lesions | – | – | – | – | – | – | – | –
2 | CO[C@H]1/C=C/O[C@@]2(C)Oc3c(C)c(O)c4c(O)c(c5c(nc6cc(C)ccn65)c4c3C2=O)NC(=O)/C(C)=C\C=C\[C@H](C)[C@H](O)[C@@H](C)[C@@H](O)[C@@H](C)[C@H](OC(C)=O)[C@@H]1C [rifaximin polymorph alpha, rifaximin] | – | not associated with deaths | – | about 22% | blunted | did not exert any relevant effect | these levels were decreased | significant reduction of Type 1 lesions | no significant differences were appreciated on the occurrence of type 2 lesions | reduced the degree of type 1 lesions, although mean values were not significantly different | effective in the reduction of lesions
